Measured values published in ChEMBL document CHEMBL1201862, “PubChem BioAssay data set” (2004).
Calls of active or inactive are those of the source.

Key:
CHO-K1 = experiment: (§1) Counterscreen for antagonists of the orexin 1 receptor (OX1R; HCRTR1): Homogeneous time resolved fluorescence (HTRF)-based cell-based dose response assay to identify antagonists of the parental CHO-K1 cell line. [Related pubchem assays (depositor defined):AID434989, AID435008, AID463079, AID485270, AID492963, AID492964, AID492965, AID493232, AID504699, AID504701]; format: functional; conditions: Cricetulus griseus
[1] = M. tuberculosis growth inhibition, HTS (AID 449762); format: functional
[2] = biological target: T1, Orexin/Hypocretin receptor type 1 (Homo sapiens, UniProt O43613); experiment: (§2) Fluorescence-based cell-based high throughput dose response assay for antagonists of the orexin 1 receptor (OX1R; HCRTR1). [Related pubchem assays (depositor defined):AID434989, AID435008, AID463079, AID485270, AID492963, AID492964, AID492965, AID493232, AID504717, AID504718]; format: functional
T1 sequence (O43613 whole entry): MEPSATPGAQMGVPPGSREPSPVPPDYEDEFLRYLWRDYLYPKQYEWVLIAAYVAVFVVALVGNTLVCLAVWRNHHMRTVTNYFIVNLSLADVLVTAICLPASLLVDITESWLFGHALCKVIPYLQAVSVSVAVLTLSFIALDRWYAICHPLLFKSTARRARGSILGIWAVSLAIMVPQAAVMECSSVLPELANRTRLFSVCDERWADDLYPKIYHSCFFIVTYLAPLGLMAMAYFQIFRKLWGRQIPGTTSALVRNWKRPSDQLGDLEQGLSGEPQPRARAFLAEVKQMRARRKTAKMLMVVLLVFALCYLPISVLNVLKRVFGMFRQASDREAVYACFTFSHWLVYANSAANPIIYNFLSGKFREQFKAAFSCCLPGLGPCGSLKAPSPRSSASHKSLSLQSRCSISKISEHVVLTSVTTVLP

[3] = biological target: T1, Orexin/Hypocretin receptor type 1; experiment: as §2, with “Homogeneous Time Resolved Fluorescence (HTRF)-based” for “Fluorescence-based”; format: functional
Orexin receptor type 2 [4] = biological target: T2, Orexin receptor type 2 (Homo sapiens, UniProt O43614); experiment: Counterscreen assay for antagonists of the orexin 1 receptor (OX1R; HCRTR1): Fluorescence-based cell-based dose response assay for antagonists of the orexin 2 receptor (OX2R; HCRTR2), run by assay provider.; format: functional
T2 sequence (O43614 whole entry): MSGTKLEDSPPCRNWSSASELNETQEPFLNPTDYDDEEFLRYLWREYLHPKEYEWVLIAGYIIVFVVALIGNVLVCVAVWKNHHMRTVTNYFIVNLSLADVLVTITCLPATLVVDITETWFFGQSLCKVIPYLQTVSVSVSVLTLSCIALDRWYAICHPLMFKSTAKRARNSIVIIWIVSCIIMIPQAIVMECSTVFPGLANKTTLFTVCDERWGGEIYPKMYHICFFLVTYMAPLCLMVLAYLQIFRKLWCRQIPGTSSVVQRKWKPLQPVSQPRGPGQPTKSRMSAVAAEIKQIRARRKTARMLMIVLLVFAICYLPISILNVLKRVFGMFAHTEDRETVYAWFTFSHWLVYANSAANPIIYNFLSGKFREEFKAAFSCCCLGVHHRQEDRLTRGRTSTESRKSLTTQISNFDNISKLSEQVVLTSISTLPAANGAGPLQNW

Orexin receptor type 2 [5] = biological target: T2, Orexin receptor type 2; experiment: Counterscreen assay for antagonists of the orexin 1 receptor (OX1R; HCRTR1): Homogeneous Time Resolved Fluorescence (HTRF)-based cell-based dose response assay for antagonists of the orexin 2 receptor (OX2R; HCRTR2), run by assay provider.; format: functional
[6] = as §1, with “Fluorescence-based” for “Homogeneous time resolved fluorescence (HTRF)-based”, “cell-based high throughput” for “cell-based”, “CHO” for “CHO-K1”; format: functional
Cytochrome P450 2C19 = Cytochrome P450 2C19 (Homo sapiens, UniProt P33261); experiment: qHTS Assay for Inhibitors and Substrates of Cytochrome P450 2C19. [Related pubchem assays: 410 ]; format: ADME; conditions: read-out: Potency
Sequence of Cytochrome P450 2C19 (P33261 whole entry): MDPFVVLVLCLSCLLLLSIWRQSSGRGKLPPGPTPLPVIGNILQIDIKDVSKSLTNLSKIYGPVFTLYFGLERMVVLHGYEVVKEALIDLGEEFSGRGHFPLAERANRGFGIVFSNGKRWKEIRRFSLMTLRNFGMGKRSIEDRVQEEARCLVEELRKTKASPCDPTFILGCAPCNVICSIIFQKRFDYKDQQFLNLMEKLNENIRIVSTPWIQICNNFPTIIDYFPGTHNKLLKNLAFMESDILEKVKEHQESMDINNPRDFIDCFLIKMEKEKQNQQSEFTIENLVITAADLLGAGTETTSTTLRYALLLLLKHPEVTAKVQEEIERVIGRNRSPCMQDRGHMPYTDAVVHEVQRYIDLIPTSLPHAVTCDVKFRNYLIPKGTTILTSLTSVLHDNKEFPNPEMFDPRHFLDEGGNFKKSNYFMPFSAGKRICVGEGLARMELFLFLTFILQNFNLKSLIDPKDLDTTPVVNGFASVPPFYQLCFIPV

[7] = viability loss in HEK293T cells – cell-based, ATP luminescence, dry powder, set 3, cytotoxicity control, dose response (AID 743131); format: functional; conditions: HEK293
[8] = viability loss in HepG2 hepatoma cells – cell-based, ATP luminescence, dry powder, set 2, cytotoxicity control, dose response (AID 743129); format: functional
[9] = viability loss in A549 lung cancer cells – cell-based, CellTiter-Glo luminescence, dry powder, set 5, cytotoxicity control, dose response (AID 743158); format: functional
[10] = biological target: T3, Dual specificity protein phosphatase 6 (Rattus norvegicus, UniProt Q64346); experiment: inhibition of rat DUSP6 enzyme activity – biochemical, in vitro, primary screen (AID 425)
T3 sequence (Q64346 whole entry): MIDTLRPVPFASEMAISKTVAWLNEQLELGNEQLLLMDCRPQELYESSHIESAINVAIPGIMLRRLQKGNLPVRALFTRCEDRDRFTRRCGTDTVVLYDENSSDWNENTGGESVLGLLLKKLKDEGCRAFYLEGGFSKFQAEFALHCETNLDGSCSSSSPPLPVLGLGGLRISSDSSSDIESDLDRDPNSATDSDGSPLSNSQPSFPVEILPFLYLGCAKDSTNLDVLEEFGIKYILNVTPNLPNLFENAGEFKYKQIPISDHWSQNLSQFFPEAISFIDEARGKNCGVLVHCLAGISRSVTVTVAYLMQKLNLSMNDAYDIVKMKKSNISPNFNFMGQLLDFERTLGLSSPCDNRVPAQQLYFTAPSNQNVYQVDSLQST

[11] = biological target: T4, Heat shock factor protein 1 (Mus musculus, UniProt P38532); experiment: enhancement of HSF1-driven luciferase signal – cell-based, NIH3T3, luminescence, dose retest, confirmation (AID 435004); format: functional;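 also: stress induced by proteasome inhibitor MG132 added 30 min after compound; luciferase reporter driven by HSF1 response element in NIH3T3 cells; actives raise luminescence as potentiators of the MG132 stress response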
T4 sequence (P38532 whole entry): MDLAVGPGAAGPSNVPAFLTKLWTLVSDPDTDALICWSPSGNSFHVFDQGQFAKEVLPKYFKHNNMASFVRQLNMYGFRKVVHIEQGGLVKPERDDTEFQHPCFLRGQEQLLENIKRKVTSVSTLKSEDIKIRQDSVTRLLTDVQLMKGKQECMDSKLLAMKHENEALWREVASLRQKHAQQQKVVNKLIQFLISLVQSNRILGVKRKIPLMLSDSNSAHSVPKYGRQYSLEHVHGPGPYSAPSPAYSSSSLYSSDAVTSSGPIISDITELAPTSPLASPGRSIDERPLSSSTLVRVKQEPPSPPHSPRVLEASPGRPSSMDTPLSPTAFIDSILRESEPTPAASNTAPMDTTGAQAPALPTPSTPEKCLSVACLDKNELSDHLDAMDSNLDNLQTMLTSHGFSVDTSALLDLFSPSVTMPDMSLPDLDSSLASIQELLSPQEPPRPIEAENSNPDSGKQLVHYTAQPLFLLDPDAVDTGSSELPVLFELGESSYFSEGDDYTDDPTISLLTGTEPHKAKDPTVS

[12] = biological target: Sphingosine 1-phosphate receptor 2 (Homo sapiens, UniProt O95136); experiment: Dose Response Cell Based Assay for Agonists of the S1P2 Receptor. [Related pubchem assays: 729, 736, 843 ]; format: functional
Sequence of Sphingosine 1-phosphate receptor 2 (O95136 whole entry): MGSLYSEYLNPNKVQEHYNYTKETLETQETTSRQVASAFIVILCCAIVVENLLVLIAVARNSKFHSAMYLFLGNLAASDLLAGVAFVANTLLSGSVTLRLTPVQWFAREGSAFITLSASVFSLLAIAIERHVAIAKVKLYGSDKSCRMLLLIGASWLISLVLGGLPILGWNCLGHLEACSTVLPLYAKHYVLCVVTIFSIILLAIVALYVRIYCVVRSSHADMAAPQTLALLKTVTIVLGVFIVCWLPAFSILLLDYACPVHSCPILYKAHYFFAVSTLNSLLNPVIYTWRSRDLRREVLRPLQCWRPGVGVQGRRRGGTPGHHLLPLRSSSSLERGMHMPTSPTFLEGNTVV

[13] = biological target: Ubiquitin carboxyl-terminal hydrolase BAP1 (Homo sapiens, UniProt Q92560); experiment: inhibition of BAP1 ubiquitin hydrolase activity – biochemical, dose response (AID 714); format: functional
Sequence of Ubiquitin carboxyl-terminal hydrolase BAP1 (Q92560 whole entry): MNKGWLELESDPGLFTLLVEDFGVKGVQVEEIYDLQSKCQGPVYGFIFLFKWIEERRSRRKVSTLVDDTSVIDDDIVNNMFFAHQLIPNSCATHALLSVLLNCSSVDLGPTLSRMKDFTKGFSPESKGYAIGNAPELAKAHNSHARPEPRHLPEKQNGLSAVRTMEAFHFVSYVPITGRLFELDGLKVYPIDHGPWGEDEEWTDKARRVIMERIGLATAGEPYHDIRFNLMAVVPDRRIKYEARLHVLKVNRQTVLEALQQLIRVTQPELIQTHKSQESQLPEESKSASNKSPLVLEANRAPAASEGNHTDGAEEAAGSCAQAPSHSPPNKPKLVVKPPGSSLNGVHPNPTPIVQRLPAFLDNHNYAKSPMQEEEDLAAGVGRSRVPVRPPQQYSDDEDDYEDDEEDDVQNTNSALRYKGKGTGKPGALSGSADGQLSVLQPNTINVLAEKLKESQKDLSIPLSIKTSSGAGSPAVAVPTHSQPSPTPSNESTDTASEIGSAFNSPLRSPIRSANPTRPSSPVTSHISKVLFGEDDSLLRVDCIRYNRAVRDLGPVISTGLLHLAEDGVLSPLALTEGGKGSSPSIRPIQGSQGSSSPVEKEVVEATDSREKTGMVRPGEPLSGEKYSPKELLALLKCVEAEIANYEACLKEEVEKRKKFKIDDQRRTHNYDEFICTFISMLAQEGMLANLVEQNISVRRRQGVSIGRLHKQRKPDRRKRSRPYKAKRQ

[14] = viability loss in Vero cells – cytotoxicity control for Vif-APOBEC3G degradation inhibitor project, dose response (AID 1117358); format: functional; conditions: Vero
[15] = HIV-1 Vif–A3G interaction blockers – biochemical, TR-FRET, GST-Vif 1-94, biotin-A3G peptide, dose response retest, primary screen (AID 1117319); format: functional;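 also: TR-FRET signal of purified GST-Vif binding a biotinylated A3G peptide; inhibitors lower the FRET signal by blocking Vif and A3G binding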

What does the source list for N#C/C(=C1\CCCN1)c1nc(-c2ccccc2)cs1?
IC50 (CHO-K1): > 66.2 µM (inactive); IC50 [1]: > 100 µM (active); IC50 [2]: 7.67 µM (active); IC50 [3]: 2.44 µM (active); IC50 (Orexin receptor type 2 [4]): > 88.8 µM (inactive); IC50 (Orexin receptor type 2 [5]): > 50 µM (inactive); IC50 [6]: > 49.8 µM (inactive)

With CC(C)C[C@@H](CC(=O)N[C@H](CC(=O)N[C@@H]1CCNC[C@H]1C(=O)N[C@H](CC(=O)N[C@@H](CCC(=O)O)CC(=O)O)Cc1ccccc1)C(C)C)NC(=O)[C@@H]1CCCC[C@H]1N as the molecule, how does the AC50 (Cytochrome P450 2C19) read?
The AC50 was 39.8 µM (inconclusive).

Which AC50 [7] does the source give for CCOC(=O)c1c(-c2ccc(C(C)(C)C)cc2)csc1NC(=O)CN1CCN(CC)CC1 here?
Its AC50 is 9.03 µM (active).

What about the AC50 [8] of the same molecule?
The AC50 was 15.3 µM (active).

And the AC50 [9]?
Its AC50 is 11.9 µM (active).

For [O-]/[N+](=C\c1ccc(OC(F)F)cc1)c1ccccc1, which IC50 [10] is on record?
Its IC50 is > 100 µM (not active).

What about the EC50 [11] of the same molecule?
The EC50 was > 260 µM (inactive).

For Oc1nc(-c2cccs2)nc2ccccc12, which EC50 [12] is on record?
Its EC50 is > 50 µM (not active).

For Cc1sc(NC(=O)CSc2nnc(C)c(=O)[nH]2)c(C#N)c1C, which IC50 [13] is on record?
The IC50 was > 50 µM (not active).

Which CC50 [14] does the source give for COc1ccccc1Cn1c(-c2ccccc2OC)nc2ccccc21 here?
The CC50 was > 40 µM (active).

And the IC50 [15]?
The IC50 was > 100 µM (active).
